From article PMC6274539, “Photoactivatable Caged Prodrugs of VEGFR-2 Kinase Inhibitors” (Molecules, 2016)
“Also recorded” adds a separate entry of the source. Like-named read-outs stand apart in the source and are kept apart here.

Assays:
[1] = test system: PC-3 cells; experiment: cellular growth (proliferation) assay, resazurin; assay type: cell-based; details: for antiproliferative effect after UV irradiation: 365 nm, 1.1 kW/m^2, 48 h; for TGI (total growth inhibition) mark: without UV irradiation
Experimental: Growth assays on VEGFR-2 dependent PC-3 cells were performed.
PC-3 cells were purchased from CLS Cell Lines Service GmbH (Eppelheim, Germany). The cells were grown in DMEM:Hams F12 (1:1) medium with 5% FCS. PC-3 cells were incubated in a 5% CO2 humidified atmosphere at 37 °C.
The cells were grown in cell flasks until approximately 90% confluence and then seeded to give 13000 cells in 100 μL per well into 96-well CulturePlates™ (Perkin Elmer). In addition to the test plates, one plate was prepared for reference measurement at day zero. All plates were incubated for 24 h at 37 °C in a humidified atmosphere with 5% CO2. Compounds 1, 3, 4, and 5 were dissolved in 100% DMSO (v/v) and added to the test plates. The final DMSO concentration in the assay was 0.5% (v/v). Viability of the cells in the day zero control plates were determined on the same day without adding any compounds. For viability measurement the resazurin assay was used. The shift in the fluorescence signal was measured at the LS55 Fluorescence spectrometer (Perkin Elmer). For the photoactivation experiments the test plates were irradiated at 365 nm for 5 min (LED source: 8× Nichia NCSU033B, Sahlmann Photochemical Solutions, 50%, 1.1 kW/m^2). Test plates were incubated for further 48 h and cell viability was defined as described above. Measured raw data was converted into percent of cell growth by using the high control (0.5% DMSO (v/v) without compound) and the day zero control. For dose-response studies, 11 different concentrations of compounds were tested in duplicates. IC50 values were calculated using the 4-parameter logarithmic fit option of GraphPad Prism 5.

[2] = biological target: T1, VEGFR-2 (Homo sapiens, UniProt P35968); experiment: radiometric 33PanQinase VEGFR-2 kinase assay (ProQinase); assay type: biochemical; details: 10 semi-log concentrations, single samples, 1% DMSO
T1 construct: determined using VEGFR-2 protein kinase by a radiometric ^33PanQinase® assay; purchased ProQinase (Freiburg, Germany)
Experimental: As predicted by molecular modeling, insertion of the protecting group DMNB should diminish the inhibitory activity both of the maleimide 1 and the carbazole 3. […] The IC50 values towards VEGFR-2 were determined (Table 1).
The VEGFR-2 IC50 profile for 1, 3, 4 and 5 was determined using VEGFR-2 protein kinase by a radiometric ^33PanQinase® assay. […] Prior to testing, the compounds were dissolved to prepare 1 × 10^−2 M stock solutions in 100% DMSO. The final DMSO concentration in the reaction cocktails was 1% in all cases. Analyses were performed by ProQinase (Freiburg, Germany).

[3] = photoactivation (uncaging) at 365 nm in DMSO (HPLC, LC-MS); assay type: physicochemical; details: 1 mM in DMSO, 5.4 W, up to 10 min
Source text: A further prerequisite for an application of caged prodrugs is a rapid and quantitative release of active parent compounds by irradiation. To examine this, we investigated the uncaging of 4 and 5 induced by irradiation at 365 nm with 5.4 W (Figure 5). […] Initially released maleimide 1 is converted to the intermediate 2 by proceeding irradiation, which is in line to the previously described instability of 1, (compare Figure 4a). […] Due to UV stability of 3 no other by-products could be detected.
After 0.25, 0.5, 0.75, 1, 2, 3, 5 and 10 min of irradiation samples were taken. Aliquots were diluted 1:5 with methanol and subsequently analyzed by HPLC. Additional to retention time LC-MS was used to proof identity.

[4] = test system: PC-3 cells; experiment: cellular uptake by fluorescence microscopy (cell staining); assay type: cell-based; details: live PC-3 cells, 10 µM, 30 min, autofluorescence
Experimental: Next, we investigated the cellular bioavailability of the caged prodrugs. For this purpose, we used the autofluorescence of the carbazole 3 and its caged derivative 5. The emission spectra of both compounds are shown in the Supplementary Figure S6. The fluorescence microscopy was used to explore the uptake of the compounds into the cells. Live PC-3 cells were stained with 10 µM solutions of 3 or 5, and then fixed with formalin. Subsequently, the cell nuclei were counterstained with 1 µg/mL DAPI.
PC-3 cells were stained with the carbazole 3 and its caged derivative 5. For this purpose, the cells were seeded to give 15,000 cells in 50 µL per well into 96-well half area microplate (Ref.: 675986, Greiner bio-one, Kremsmünster, Austria). The plate was incubated for 48 h at 37 °C in a humidified atmosphere with 5% CO2. Compounds 3 and 5 were dissolved in DMEM:Hams F12 (1:1) medium with 5% FCS and added to the cells to give the endconcentration of 10 µM, respectively. The cells were incubated with the compounds for 30 min at 37 °C. After that, the cells were washed twice with PBS and fixed with 3.3% formalin for 15 min. […] After 30 min incubation at 37 °C, the cells were washed with PBS and the fluorescence images were taken at the ImageXpress® Micro XL (Molecular Devices, Sunnyvale CA, USA). […]

[5] = Homo sapiens, PC-3, light or radiation study, irradiated at 365 nm, 5 min, 1.1 kW/m^2, cell growth after 48 h, read-out: GI50 after Irradiation
[6] = irradiated at 365 nm, 5 min, 1.1 kW/m^2, cell growth after 48 h, read-out: GI50 after Irradiation

T1 sequence (P35968 20-1356): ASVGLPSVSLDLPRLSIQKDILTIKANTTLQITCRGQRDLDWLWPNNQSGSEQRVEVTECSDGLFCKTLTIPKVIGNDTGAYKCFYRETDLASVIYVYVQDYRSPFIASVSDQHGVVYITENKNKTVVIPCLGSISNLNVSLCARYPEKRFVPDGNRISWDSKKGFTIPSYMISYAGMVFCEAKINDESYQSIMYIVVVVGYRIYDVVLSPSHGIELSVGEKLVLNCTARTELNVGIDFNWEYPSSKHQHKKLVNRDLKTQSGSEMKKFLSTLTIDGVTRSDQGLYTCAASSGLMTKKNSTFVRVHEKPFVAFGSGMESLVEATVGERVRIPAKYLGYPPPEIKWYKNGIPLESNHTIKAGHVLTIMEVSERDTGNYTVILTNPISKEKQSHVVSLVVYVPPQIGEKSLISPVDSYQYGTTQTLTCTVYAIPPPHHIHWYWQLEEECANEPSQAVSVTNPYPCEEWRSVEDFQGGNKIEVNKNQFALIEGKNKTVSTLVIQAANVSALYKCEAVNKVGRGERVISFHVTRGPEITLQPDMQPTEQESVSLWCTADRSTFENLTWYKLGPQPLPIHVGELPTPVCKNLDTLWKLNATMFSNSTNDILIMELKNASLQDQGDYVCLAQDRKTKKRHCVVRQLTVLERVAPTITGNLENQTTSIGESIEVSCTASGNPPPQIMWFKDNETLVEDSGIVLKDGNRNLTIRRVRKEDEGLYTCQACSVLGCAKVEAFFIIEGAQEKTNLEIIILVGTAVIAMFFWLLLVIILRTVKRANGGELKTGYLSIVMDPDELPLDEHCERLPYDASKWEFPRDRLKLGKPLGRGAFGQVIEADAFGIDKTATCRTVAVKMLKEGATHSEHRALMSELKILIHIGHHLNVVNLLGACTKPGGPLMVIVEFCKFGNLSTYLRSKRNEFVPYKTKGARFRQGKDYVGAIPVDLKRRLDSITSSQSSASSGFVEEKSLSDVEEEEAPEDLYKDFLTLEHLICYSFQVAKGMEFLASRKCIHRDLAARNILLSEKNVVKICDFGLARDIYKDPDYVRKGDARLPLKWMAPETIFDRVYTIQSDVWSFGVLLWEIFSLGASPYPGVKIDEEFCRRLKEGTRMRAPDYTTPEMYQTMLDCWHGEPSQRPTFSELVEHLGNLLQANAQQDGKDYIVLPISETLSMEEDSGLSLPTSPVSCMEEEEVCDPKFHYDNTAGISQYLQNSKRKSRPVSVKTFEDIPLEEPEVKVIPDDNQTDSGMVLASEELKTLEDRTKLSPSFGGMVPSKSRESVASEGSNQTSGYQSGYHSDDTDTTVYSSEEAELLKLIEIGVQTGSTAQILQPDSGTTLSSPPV

C[C@H](NC(=O)OC(C)(C)C)C(=O)O [Boc-Ala, reference compound]
antiproliferative effect after UV irradiation ([1]; 5 min): does not have any effect on cellular growth | antiproliferative effect without UV irradiation ([1]; no UV irradiation, 48 h): do not show any; also recorded: did not show any antiproliferative effects

COc1cc(CN2C(=O)C(c3cc(OC)c(OC)c(OC)c3)=C(c3c[nH]c4ccccc34)C2=O)c([N+](=O)[O-])cc1OC [Compound 4, 1-(4,5-Dimethoxy-2-nitrobenzyl)-3-(1H-indol-3-yl)-4-(3,4,5-trimethoxyphenyl)-1H-pyrrole-2,5-dione]
melting point: 205 °C | GI50 [1, 5]: 0.1 µM | concentration at which the cleaved PPG shows toxicity relative to efficacious concentration of the irradiated compound ([1]; after irradiation, PPG from DMNB-Boc-Ala): approximately 500 fold | antiproliferative effect without UV irradiation ([1]; no UV irradiation, 48 h): do not show any; also recorded: very marginal antiproliferative activity | GI50 without Irradiation ([1]; no UV irradiation, cell growth after 48 h): not reached | TGI (total growth inhibition) mark ([1]; 48 h): not reached even at high concentrations | IC50 [2]: 4.59 µM | photoinduced release of parent compound (uncaging) [3]: cleavage of the DMNB PPG

COc1cc(CN2C(=O)c3c(c4c5ccccc5[nH]c4c4c(OC)c(OC)c(OC)cc34)C2=O)c([N+](=O)[O-])cc1OC [Compound 5, 2-(4,5-Dimethoxy-2-nitrobenzyl)-5,6,7-trimethoxybenzo[a]pyrrolo[3,4-c]carbazole-1,3(2H,8H)-dione]
melting point: 283 °C | GI50 ([1]; Homo sapiens, PC-3, light or radiation study, 48 h, no UV irradiation, cell growth after 48 h, read-out: GI50 without Irradiation): 34.6 µM | GI50 [1, 5]: 0.22 µM | GI50 [1, 6]: 0.2 µM | TGI (total growth inhibition) mark ([1]; 48 h): not reached even at high concentrations | cellular uptake [4]: taken up into the cells, but not within the cell nuclei | IC50 [2]: 44.8 µM | photoinduced release of parent compound (uncaging) [3]: rapidly released

COc1cc(COC(=O)[C@H](C)NC(=O)OC(C)(C)C)c([N+](=O)[O-])cc1OC [DMNB-Boc-Ala, reference compound]
antiproliferative effect after UV irradiation ([1]; 5 min): distinct antiproliferative activity | GI50 [1, 6]: 50.3 µM | antiproliferative effect without UV irradiation ([1]; no UV irradiation, 48 h): do not show any; also recorded: did not show any antiproliferative effects
